From patent US20060079555A1, “Diarylmethylidene piperidine derivatives, preparations thereof and uses thereof” (AstraZeneca AB, priority 2003, published 2006)

Target: T1, human δ receptor (Homo sapiens, UniProt P41143)
T1 construct: expressed in transfected cells
Assay: GTP[γ]35S binding functional assay, human δ receptor
Assay type: biochemical
Settings: Emax in relation to the standard δ agonist SNC80
Protocol: The agonist activity of the compounds is measured by determining the degree to which the compounds receptor complex activates the binding of GTP to G-proteins to which the receptors are coupled. In the GTP binding assay, GTP[γ]^35S is combined with test compounds and membranes from HEK-293S cells expressing the cloned human opioid receptors or from homogenised rat and mouse brain. Agonists stimulate GTP[γ]^35S binding in these membranes. The EC50 and Emax values of compounds are determined from dose-response curves. Right shifts of the dose response curve by the delta antagonist naltrindole are performed to verify that agonist activity is mediated through delta receptors. The Emax values were determined in relation to the standard δ agonist SNC80, i.e., higher than 100% is a compound that have better efficacy than SNC80.

T1 sequence (P41143 whole entry): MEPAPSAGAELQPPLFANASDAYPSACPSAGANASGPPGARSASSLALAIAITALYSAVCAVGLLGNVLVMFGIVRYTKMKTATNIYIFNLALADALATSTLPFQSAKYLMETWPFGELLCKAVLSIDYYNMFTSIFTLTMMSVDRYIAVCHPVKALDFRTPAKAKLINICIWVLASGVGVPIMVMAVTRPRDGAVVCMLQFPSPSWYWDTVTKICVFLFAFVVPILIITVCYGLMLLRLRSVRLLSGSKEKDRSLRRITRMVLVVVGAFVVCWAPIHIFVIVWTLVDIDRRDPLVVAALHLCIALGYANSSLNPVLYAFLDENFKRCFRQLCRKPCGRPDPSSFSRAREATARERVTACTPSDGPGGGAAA

Structure (SMILES)	Emax
CCN(CC)C(=O)c1ccc(C(=C2CCNCC2)c2cccc(C(=O)Nc3ccccc3)c2)cc1 [Compound 1, 4-[[3-(anilinocarbonyl)phenyl](piperidin-4-ylidene)methyl]-N,N-diethylbenzamide]	69 to 105%
CCN(CC)C(=O)c1ccc(C(=C2CCNCC2)c2cccc(C(=O)NCc3ccccc3)c2)cc1 [Compound 2, 4-[{3-[(benzylamino)carbonyl]phenyl}(piperidin-4-ylidene)methyl]-N,N-diethylbenzamide]	69 to 105%
CCN(CC)C(=O)c1ccc(C(=C2CCNCC2)c2cccc(C(=O)NCCc3ccccc3)c2)cc1 [Compound 3, 4-[(3-{[(2-phenylethyl)amino]carbonyl}phenyl)(piperidin-4-ylidene)methyl]-N,N-diethylbenzamide]	69 to 105%
CCN(CC)C(=O)c1ccc(C(=C2CCNCC2)c2cccc(C(=O)NC3CCCC3)c2)cc1 [Compound 4, 4-[{3-[(cyclopentlamino)carbonyl]phenyl}(piperidin-4-ylidene)methyl]-N,N-diethylbenzamide]	69 to 105%
CCN(CC)C(=O)c1ccc(C(=C2CCNCC2)c2cccc(C(=O)NC3CCCCC3)c2)cc1 [Compound 5]	69 to 105%
CCN(CC)C(=O)c1ccc(C(=C2CCNCC2)c2cccc(C(=O)NCC3CCCCC3)c2)cc1 [Compound 6]	69 to 105%
CCN(CC)C(=O)c1ccc(C(=C2CCNCC2)c2cccc(C(=O)NCc3ccccc3Cl)c2)cc1 [Compound 7, 4-[(3-{[(2-chlorobenzyl)amino]carbonyl}phenyl)(piperidin-4-ylidene)methyl]-N,N-diethylbenzamide]	69 to 105%
CCN(CC)C(=O)c1ccc(C(=C2CCNCC2)c2cccc(C(=O)NCc3ccccc3F)c2)cc1 [Compound 8, 4-[(3-{[(2-fluorobenzyl)amino]carbonyl}phenyl)(piperidin-4-ylidene)methyl]-N,N-diethylbenzamide]	69 to 105%
CCN(CC)C(=O)c1ccc(C(=C2CCNCC2)c2cccc(C(=O)N[C@H](C)c3ccc(C)cc3)c2)cc1 [Compound 9, 4-[[3-({[(1R)1-(4-methylphenyl)ethyl]amino}carbonyl)phenyl](piperidin-4-ylidene)methyl]-N,N-diethylbenzamide]	69 to 105%
CCN(CC)C(=O)c1ccc(C(=C2CCNCC2)c2cccc(C(=O)Nc3nc(C)cs3)c2)cc1 [Compound 10, 4-[(3-{[(4-methyl-1,3-thiazol-2-yl)amino]carbonyl}phenyl)(piperidin-4-ylidene)methyl]-N,N-diethylbenzamide]	69 to 105%
CCN(CC)C(=O)c1ccc(C(=C2CCNCC2)c2cccc(C(=O)Nc3ccc(C)nc3C)c2)cc1 [Compound 11]	69 to 105%
CCN(CC)C(=O)c1ccc(C(=C2CCNCC2)c2cccc(C(=O)NCC(C)C)c2)cc1 [Compound 12, 4-[{3-[(isobutylamino)carbonyl]phenyl}(piperidin-4-ylidene)methyl]-N,N-diethylbenzamide]	69 to 105%
CCC(CC)NC(=O)c1cccc(C(=C2CCNCC2)c2ccc(C(=O)N(CC)CC)cc2)c1 [Compound 13, 4-[(3{[(1-ethylpropyl)amino]carbonyl}phenyl)(piperidin-4-ylidene)methyl]-N,N-diethylbenzamide]	69 to 105%
CCN(CC)C(=O)c1ccc(C(=C2CCNCC2)c2cccc(C(=O)N(C)CCc3ccccc3)c2)cc1 [Compound 14, 4-[(3-{[methyl(2-phenylethyl)amino]carbonyl}phenyl)(piperidin-4-ylidene)methyl]-N,N-diethylbenzamide]	69 to 105%
CCN(CC)C(=O)c1ccc(C(=C2CCNCC2)c2cccc(C(=O)N3CCCCC3)c2)cc1 [Compound 15]	69 to 105%
CCN(CC)C(=O)c1ccc(C(=C2CCNCC2)c2cccc(C(=O)N3CCCC3)c2)cc1 [Compound 16, N,N-diethyl-4-{piperidin-4-ylidene[3-(pyrrolidin-1-ylcarbonyl)phenyl]methyl}benzamide]	69 to 105%
